pIC50: −log10 of the molar value.
Experiments:
Type in all cases: biochemical
JARID1C = JARID1C (Homo sapiens, UniProt P41229); test: JARID1C AlphaScreen-based assay
Description: (§1) reactions were quenched after 4 min. KDM4A inhibition was tested as described previously using a formaldehyde dehydrogenase (FDH) assay.[9] JARID1B and JARID1C inhibition was tested as described previously using reported AlphaScreen-based assays.[10] MINA531-464 and NO66116-641 were cloned into pFB-LIC-Bse, and the N-terminal His-tagged proteins were produced in Sf9 insect cells. The MINA53 peptide substrate Rpl27a […]
(§2) (Gly31 – Pro49 […]) and the NO66 peptide substrate Rpl8
(§3) (Asn205 – Thr224 […]) were synthesized by Peptide Protein
(§4) Research Ltd (Fareham, Hampshire, UK) to >95% purity. IC50 determinations were performed in 384-well polypropylene plates (Greiner Bio One, Cat Number 781096), and compound dispenses were performed using an ECHO 550 acoustic dispenser (Labcyte, Sunnyvale, CA).
(§5) NO66 (diluted to 375 nM in 50 mM MES pH 7.0, 150 mM NaCl) and MINA53 (diluted to 187.5 nM in 50 mM HEPES pH 7.5, 50 mM NaCl) were dispensed (40 µL) into 384-well compound plates using a multidrop combi reagent dispenser (Thermo Scientific, Code 5840300) with a small tube plastic tip dispensing cassette (Thermo Scientific, Code 24073290).
(§6) NO66 and MINA53 were pre-incubated with compound for 15 minutes, and the enzyme reaction initiated by dispensing 10 µL of substrate solution [250 µM (NH4)2Fe(SO4)2, 500 µM sodium ascorbate, 25 µM 2OG, 25 µM peptide] in optimized enzyme buffer. […]

PHD2181-426 = target: T1, PHD2181-426 (Homo sapiens, UniProt Q9GZT9); test: PHD2 inhibition assay: hydroxylation of HIF-1a CODD peptide by MALDI-TOF MS
T1 construct: 181-426 (1 µM) was
T1 sequence (Q9GZT9 181-426 limits assumed): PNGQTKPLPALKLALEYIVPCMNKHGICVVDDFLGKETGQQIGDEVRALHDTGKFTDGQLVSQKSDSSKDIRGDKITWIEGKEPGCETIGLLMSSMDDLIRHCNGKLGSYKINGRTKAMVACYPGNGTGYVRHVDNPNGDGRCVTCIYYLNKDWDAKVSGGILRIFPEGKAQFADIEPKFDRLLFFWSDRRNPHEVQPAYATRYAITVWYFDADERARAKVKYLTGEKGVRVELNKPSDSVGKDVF
Description: OGFOD1 inhibition assays were performed by determining the extent of hydroxylation of a 20mer fragment of human ribosomal protein S23 (RPS23) containing residues 51-70 (H2N- […]
-CONH2) by matrix-assisted laser desorption/ionization time-of-flight mass spectrometry (MALDI-TOF MS) using a Waters Micromass MALDI micro MX mass spectrometer and MassLynx 4.1, as previously described.[7,8] The optimized hydroxylation assay involved incubation of OGFOD1 (1 µM) with inhibitor (1 % v/v in DMSO) in the presence of (NH4)2Fe(SO4)2 (50 µM), the disodium salt of 2-oxoglutarate (25 µM), […]
OGFOD1 was pre-incubated with inhibitor for 5 min before initiation of the reaction via the addition of the other reagents. Reactions were quenched with formic acid (1 % v/v) after 15 min. Samples were prepared for MALDI using α-cyano-4-hydrocinnamic acid (CHCA; prepared in 50 % acetonitrile) as a matrix. Dose-responses were assessed in 8-point triplicates, normalized to a no enzyme negative control and a no inhibitor positive control. Non-linear regression analysis was performed using Prism (GraphPad).
PHD2181-426 inhibition assays were performed by determining the extent of hydroxylation of a HIF-1a CODD peptide substrate (HIF-1a residues 556-574), using MALDI-TOF MS as described with OGFOD1.[8] The optimized hydroxylation assay involved incubation of PHD2181-426 (1 µM) with inhibitor (1 % v/v in DMSO) in the presence of (NH4)2Fe(SO4)2 (10 µM), the disodium salt of 2-oxoglutarate (60 µM), sodium ascorbate (100 µM), and HIF-1aCODD 556-574 (50 µM) in HEPES (50 mM, pH 7.5) at 37 °C for 15 min. The FIH assay employed MALDI-TOF MS detection of hydroxylation. Reactions consisted of FIH […]
(50 nM), ankyrin peptide (50 µM; […]), the disodium salt of 2- […]
oxoglutarate (100 µM), sodium ascorbate (100 µM), and (NH4)2Fe(SO4)2 (10 µM), and […]

KDM4A = target: T2, KDM4A (Homo sapiens, UniProt O75164); test: KDM4A formaldehyde dehydrogenase (FDH) assay
T2 sequence (O75164 1-1064): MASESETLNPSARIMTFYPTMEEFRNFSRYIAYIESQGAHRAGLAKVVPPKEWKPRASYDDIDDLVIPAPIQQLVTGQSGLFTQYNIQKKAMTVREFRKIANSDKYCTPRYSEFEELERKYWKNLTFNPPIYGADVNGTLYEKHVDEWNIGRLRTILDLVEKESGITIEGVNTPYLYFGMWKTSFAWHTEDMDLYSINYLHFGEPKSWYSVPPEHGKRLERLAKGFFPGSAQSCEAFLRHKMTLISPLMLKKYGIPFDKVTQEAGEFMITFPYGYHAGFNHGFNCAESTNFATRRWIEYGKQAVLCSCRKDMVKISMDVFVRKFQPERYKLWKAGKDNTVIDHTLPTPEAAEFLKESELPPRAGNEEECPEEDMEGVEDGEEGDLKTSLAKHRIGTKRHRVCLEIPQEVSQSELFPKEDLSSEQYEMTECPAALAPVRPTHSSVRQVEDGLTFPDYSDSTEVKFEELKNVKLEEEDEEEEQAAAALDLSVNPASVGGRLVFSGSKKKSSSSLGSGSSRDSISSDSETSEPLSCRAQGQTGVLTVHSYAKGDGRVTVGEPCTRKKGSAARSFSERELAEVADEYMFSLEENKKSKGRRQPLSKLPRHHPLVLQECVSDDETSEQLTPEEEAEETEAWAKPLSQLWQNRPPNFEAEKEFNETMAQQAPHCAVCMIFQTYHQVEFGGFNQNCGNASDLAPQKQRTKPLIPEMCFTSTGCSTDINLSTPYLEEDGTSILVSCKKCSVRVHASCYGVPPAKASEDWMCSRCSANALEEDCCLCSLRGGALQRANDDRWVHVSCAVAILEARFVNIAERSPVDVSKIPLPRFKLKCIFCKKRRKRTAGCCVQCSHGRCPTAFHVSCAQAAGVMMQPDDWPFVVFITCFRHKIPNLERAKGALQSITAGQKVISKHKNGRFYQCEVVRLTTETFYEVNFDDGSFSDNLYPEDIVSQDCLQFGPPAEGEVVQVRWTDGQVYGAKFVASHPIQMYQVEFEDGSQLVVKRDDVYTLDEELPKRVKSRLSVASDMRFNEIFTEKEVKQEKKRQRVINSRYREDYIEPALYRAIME
Description: as §1, §2, §3, §4, §5, §6

JARID1C, sequence (P41229 whole entry): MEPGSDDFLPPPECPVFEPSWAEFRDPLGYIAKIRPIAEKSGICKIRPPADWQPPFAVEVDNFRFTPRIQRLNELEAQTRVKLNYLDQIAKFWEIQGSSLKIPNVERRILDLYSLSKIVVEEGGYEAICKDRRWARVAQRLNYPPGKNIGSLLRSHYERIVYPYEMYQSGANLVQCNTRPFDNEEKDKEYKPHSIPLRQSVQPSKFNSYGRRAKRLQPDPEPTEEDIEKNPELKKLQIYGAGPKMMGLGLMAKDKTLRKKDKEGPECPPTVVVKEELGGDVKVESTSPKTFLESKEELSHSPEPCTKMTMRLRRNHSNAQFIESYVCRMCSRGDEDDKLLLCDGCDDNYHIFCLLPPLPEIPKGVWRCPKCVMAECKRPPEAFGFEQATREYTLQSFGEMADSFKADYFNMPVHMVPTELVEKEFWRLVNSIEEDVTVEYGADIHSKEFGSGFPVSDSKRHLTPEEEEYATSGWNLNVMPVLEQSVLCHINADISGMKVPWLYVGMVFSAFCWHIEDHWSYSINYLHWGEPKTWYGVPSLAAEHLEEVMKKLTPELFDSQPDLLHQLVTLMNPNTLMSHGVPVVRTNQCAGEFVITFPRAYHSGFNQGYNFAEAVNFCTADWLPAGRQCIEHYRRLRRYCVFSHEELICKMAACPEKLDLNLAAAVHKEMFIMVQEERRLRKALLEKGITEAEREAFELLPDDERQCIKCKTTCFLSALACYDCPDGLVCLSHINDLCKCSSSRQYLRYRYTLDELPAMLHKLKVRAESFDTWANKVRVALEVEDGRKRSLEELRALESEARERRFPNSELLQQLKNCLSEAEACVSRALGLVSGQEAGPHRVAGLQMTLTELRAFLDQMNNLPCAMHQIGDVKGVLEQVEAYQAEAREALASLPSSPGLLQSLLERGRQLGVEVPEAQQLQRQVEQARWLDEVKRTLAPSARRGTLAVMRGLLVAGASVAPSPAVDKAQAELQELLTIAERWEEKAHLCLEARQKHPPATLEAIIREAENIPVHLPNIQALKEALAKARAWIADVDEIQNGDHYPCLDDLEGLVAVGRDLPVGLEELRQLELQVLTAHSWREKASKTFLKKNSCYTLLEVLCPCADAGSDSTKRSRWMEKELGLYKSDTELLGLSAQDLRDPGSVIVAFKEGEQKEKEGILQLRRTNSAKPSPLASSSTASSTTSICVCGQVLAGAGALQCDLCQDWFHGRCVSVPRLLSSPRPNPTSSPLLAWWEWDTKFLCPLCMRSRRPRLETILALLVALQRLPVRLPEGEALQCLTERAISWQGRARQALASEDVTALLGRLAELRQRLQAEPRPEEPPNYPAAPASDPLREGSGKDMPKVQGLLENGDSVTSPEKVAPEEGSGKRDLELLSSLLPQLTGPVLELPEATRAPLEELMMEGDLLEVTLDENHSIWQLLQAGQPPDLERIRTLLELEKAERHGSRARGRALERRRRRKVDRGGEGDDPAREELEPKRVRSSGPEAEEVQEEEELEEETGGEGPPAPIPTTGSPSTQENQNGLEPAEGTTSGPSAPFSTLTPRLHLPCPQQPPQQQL

| Structure (SMILES) | pIC50 (JARID1C) | pIC50 (PHD2181-426) | inhibition of PHD2 hydroxylation activity, in words (PHD2181-426; inhibitor 100 µM, PHD2181-426 1 µM (Figures S2, S8)) | pIC50 (KDM4A) |
| --- | --- | --- | --- | --- |
| Cn1c(O)c(C(=O)CCc2ccccc2)c(=O)n(C)c1=O [compound 26] | < 4.00 | < 4.00 | Lack of inhibition | < 4.00 |
| Cn1c(O)c(C(=O)CCc2cccs2)c(=O)n(C)c1=O [compound 42] | < 4.00 | < 4.00 | – | < 4.00 |
